Source: US10894784B2, “Heteroarylbenzimidazole compounds” (BAYER PHARMA AKTIENGESELLSCHAFT, priority 2015, dated 2021)

Target: TBK1 (Homo sapiens (Human), UniProt Q9UHD2)
Experiment: TBK1 low ATP kinase assay (in vitro assay 1)
Assay type: biochemical
Conditions: in vitro assay 1, read-out: TBK1 low ATP kinase assay IC50

Sequence of TBK1 (Q9UHD2 whole entry): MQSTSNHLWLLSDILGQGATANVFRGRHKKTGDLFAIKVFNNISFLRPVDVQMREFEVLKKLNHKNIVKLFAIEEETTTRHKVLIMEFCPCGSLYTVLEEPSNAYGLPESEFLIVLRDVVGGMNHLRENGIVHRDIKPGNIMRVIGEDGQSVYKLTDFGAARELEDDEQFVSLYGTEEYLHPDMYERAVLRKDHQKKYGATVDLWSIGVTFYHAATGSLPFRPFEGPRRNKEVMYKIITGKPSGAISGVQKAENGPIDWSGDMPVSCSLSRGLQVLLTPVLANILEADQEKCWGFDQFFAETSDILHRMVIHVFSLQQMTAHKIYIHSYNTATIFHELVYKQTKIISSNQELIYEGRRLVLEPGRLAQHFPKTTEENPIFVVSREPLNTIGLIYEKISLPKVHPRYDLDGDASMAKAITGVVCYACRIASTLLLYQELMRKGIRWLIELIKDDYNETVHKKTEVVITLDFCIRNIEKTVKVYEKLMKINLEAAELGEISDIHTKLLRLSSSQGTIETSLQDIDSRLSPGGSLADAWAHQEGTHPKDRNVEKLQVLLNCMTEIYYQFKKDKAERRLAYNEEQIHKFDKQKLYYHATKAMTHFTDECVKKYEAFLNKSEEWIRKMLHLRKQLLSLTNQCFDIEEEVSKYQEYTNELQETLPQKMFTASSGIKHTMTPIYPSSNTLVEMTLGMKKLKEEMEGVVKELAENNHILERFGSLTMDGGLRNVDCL

O=C(CC(F)(F)F)N1CCN(Cc2ccnc(Nc3nc4ccc(-c5nc(C6CC6)no5)cc4[nH]3)c2)CC1 [Example 17.02, 1-{4-[(2-{[6-(3-cyclopropyl-1,2,4-oxadiazol-5-yl)-1H-benzimidazol-2-yl]amino}pyridin-4-yl)methyl]piperazin-1-yl}-3,3,3-trifluoropropan-1-one]
IC50: 64.9 nM

O=C(CC(F)(F)F)N1CCN(Cc2ccnc(Nc3nc4ccc(-c5ccnc(N6CCCC6)n5)cc4[nH]3)c2)CC1 [Example 177.02, 3,3,3-trifluoro-1-(4-{[2-({6-[2-(pyrrolidin-1-yl)pyrimidin-4-yl]-1H-benzimidazol-2-yl}amino)pyridin-4-yl]methyl}piperazin-1-yl)propan-1-one]
IC50: 74.5 nM

O=C(CC(F)(F)F)N1CCN(Cc2ccnc(Nc3nc4ccc(-c5ccn(CC6CC6)c(=O)c5)cc4[nH]3)c2)CC1 [Example 44.01, 1-(cyclopropylmethyl)-4-{2-[(4-{[4-(3,3,3-trifluoropropanoyl)piperazin-1-yl]methyl}pyridin-2-yl)amino]-1H-benzimidazol-6-yl}pyridin-2(1H)-one]
IC50: 94 nM

CC(c1ccnc(Nc2nc3ccc(-c4cc(OCC(F)(F)F)ncn4)cc3[nH]2)c1)N1CCN(C(=O)C2CC2)CC1 (single isomer, unassigned) [Example 119.03, cyclopropyl(4-{(1R or 1S)-1-[2-({6-[6-(2,2,2-trifluoroethoxy)pyrimidin-4-yl]-1H-benzimidazol-2-yl}amino)pyridin-4-yl]ethyl}piperazin-1-yl)methanone]
IC50: 5.93 nM

COc1cnc(C)cc1-c1ccc2nc(Nc3cc(CN4CCN(C(=O)CC5CC5)CC4)ccn3)[nH]c2c1 [Example 07.04, 2-cyclopropyl-1-{4-[(2-{[6-(5-methoxy-2-methylpyridin-4-yl)-1H-benzimidazol-2-yl]amino}pyridin-4-yl)methyl]piperazin-1-yl}ethanone]
IC50: 444 nM

COc1c(NCC2CC2)ncnc1-c1ccc2nc(Nc3cc(C(C)N4CCN(C(=O)CC(F)(F)F)CC4)ccn3)[nH]c2c1 (single isomer, unassigned) [Example 109.02.03, 1-{4-[(1R or 1S)-1-{2-[(6-{6-[(cyclopropylmethyl)amino]-5-methoxypyrimidin-4-yl}-1H-benzimidazol-2-yl)amino]pyridin-4-yl}ethyl]piperazin-1-yl}-3,3,3-trifluoropropan-1-one]
IC50: 2.4 nM

CC(c1ccnc(Nc2nc3ccc(-c4ccncn4)cc3[nH]2)c1)N1CCN(C(=O)C2CCC2)CC1 (single isomer, unassigned) [Example 23.05.03.B, cyclobutyl{4-[(1S or 1R)-1-(2-{[6-(pyrimidin-4-yl)-1H-benzimidazol-2-yl]amino}pyridin-4-yl)ethyl]piperazin-1-yl}methanone]
IC50: 14.5 nM

Cc1cc(CN2CCN(C(=O)CC(F)(F)F)CC2)cc(Nc2nc3ccc(-c4ccnc(C)n4)cc3[nH]2)n1 [Example 24.02.02, 3,3,3-trifluoro-1-{4-[(2-methyl-6-{[6-(2-methylpyrimidin-4-yl)-1H-benzimidazol-2-yl]amino}pyridin-4-yl)methyl]piperazin-1-yl}propan-1-one]
IC50: 63.1 nM

COc1c(C)ncnc1-c1ccc2nc(Nc3cc(CN4CCN(C(=O)CC(F)(F)F)CC4)ccn3)[nH]c2c1 [Example 61.01.01, 3,3,3-trifluoro-1-{4-[(2-{[6-(5-methoxy-6-methylpyrimidin-4-yl)-1H-benzimidazol-2-yl]amino}pyridin-4-yl)methyl]piperazin-1-yl}propan-1-one]
IC50: 19.7 nM

COc1nc(Cl)cc(-c2ccc3nc(Nc4cc(CN5CCN(C(=O)OC(C)(C)C)CC5)ccn4)[nH]c3c2)n1 [Example 185.01, tert-butyl 4-[(2-{[6-(6-chloro-2-methoxypyrimidin-4-yl)-1H-benzimidazol-2-yl]amino}pyridin-4-yl)methyl]piperazine-1-carboxylate]
IC50: 212 nM

CC(c1ccnc(Nc2nc3ccc(-c4cnn(CC5(Cl)CC5)c4)cc3[nH]2)c1)N1CCN(C(=O)OC(C)(C)C)CC1 (single isomer, unassigned) [Example 69.01, tert-butyl 4-[(1R or 1S)-1-{2-[(6-{1-[(1-chlorocyclopropyl)methyl]-1H-pyrazol-4-yl}-1H-benzimidazol-2-yl)amino]pyridin-4-yl}ethyl]piperazine-1-carboxylate]
IC50: 12 nM

Cc1noc(-c2ccc3nc(Nc4cc(CN5CCN(C=O)CC5)ccn4)[nH]c3c2)n1 [Example 101.01, 4-[(2-{[6-(3-methyl-1,2,4-oxadiazol-5-yl)-1H-benzimidazol-2-yl]amino}pyridin-4-yl)methyl]piperazine-1-carbaldehyde]
IC50: 680 nM

COc1nnc(Cl)cc1-c1ccc2nc(Nc3cc(CN4CCN(C(=O)C5CC5)CC4)ccn3)[nH]c2c1 [Example 46.02, {4-[(2-{[6-(6-chloro-3-methoxypyridazin-4-yl)-1H-benzimidazol-2-yl]amino}pyridin-4-yl)methyl]piperazin-1-yl}(cyclopropyl)methanone]
IC50: 72.2 nM

COc1cncnc1-c1ccc2nc(Nc3cc(CN4CCN(C(=O)CC(F)(F)F)CC4)ccn3)[nH]c2c1 [Example 35.01.01, 3,3,3-trifluoro-1-{4-[(2-{[6-(5-methoxypyrimidin-4-yl)-1H-benzimidazol-2-yl]amino}pyridin-4-yl)methyl]piperazin-1-yl}propan-1-one]
IC50: 18.9 nM

Cc1noc(-c2ccc3nc(Nc4cc(C(C)N5CCN(C(=O)C(C)(C)O)CC5)ccn4)[nH]c3c2)n1 (single isomer, unassigned) [Example 16.06.06, 2-hydroxy-2-methyl-1-{4-[(1R or 1S)-1-(2-{[6-(3-methyl-1,2,4-oxadiazol-5-yl)-1H-benzimidazol-2-yl]amino}pyridin-4-yl)ethyl]piperazin-1-yl}propan-1-one]
IC50: 73 nM

CC(c1ccnc(Nc2nc3ccc(-c4cc(C(F)(F)F)ncn4)cc3[nH]2)c1)N1CCN(C(=O)CC(F)(F)F)CC1 (single isomer, unassigned) [Example 29.02.01.A, 3,3,3-trifluoro-1-(4-{(1R or 1S)-1-[2-({6-[6-(trifluoromethyl)pyrimidin-4-yl]-1H-benzimidazol-2-yl}amino)pyridin-4-yl]ethyl}piperazin-1-yl)propan-1-one]
IC50: 92.3 nM

Cc1cccc(-c2ccc3nc(Nc4cc(CN5CCN(C(=O)C6CC6)CC5)ccn4)[nH]c3c2)n1 [Example 12.02, cyclopropyl{4-[(2-{[6-(6-methylpyridin-2-yl)-1H-benzimidazol-2-yl]amino}pyridin-4-yl)methyl]piperazin-1-yl}methanone]
IC50: 924 nM

Cc1nccc(-c2ccc3nc(Nc4cc(C(C)N5CCN(C(=O)CC(F)(F)F)CC5)ccn4)[nH]c3c2)n1 (single isomer, unassigned) [Example 24.05.01.B, 3,3,3-trifluoro-1-{4-[(1S or 1R)-1-(2-{[6-(2-methylpyrimidin-4-yl)-1H-benzimidazol-2-yl]amino}pyridin-4-yl)ethyl]piperazin-1-yl}propan-1-one]
IC50: 6.62 nM

COc1c(-c2ccc3nc(Nc4cc(C(C)N5CCN(C(=O)C6CC6)CC5)ccn4)[nH]c3c2)ncnc1N(C)C (single isomer, unassigned) [Example 107.02.02, cyclopropyl(4-{(1R or 1S)-1-[2-({6-[6-(dimethylamino)-5-methoxypyrimidin-4-yl]-1H-benzimidazol-2-yl}amino)pyridin-4-yl]ethyl}piperazin-1-yl)methanone]
IC50: 5.9 nM

COc1cnc(C(=O)N(C)C)cc1-c1ccc2nc(Nc3cc(CN4CCN(C(=O)C5CC5)CC4)ccn3)[nH]c2c1 [Example 08.01, 4-{2-[(4-{[4-(cyclopropylcarbonyl)piperazin-1-yl]methyl}pyridin-2-yl)amino]-1H-benzimidazol-6-yl}-5-methoxy-N,N-dimethylpyridine-2-carboxamide]
IC50: 624 nM

CC(c1ccnc(Nc2nc3ccc(-c4cc(C(F)F)ncn4)cc3[nH]2)c1)N1CCN(C(=O)OC(C)(C)C)CC1 (single isomer, unassigned) [Example 174.01, tert-butyl 4-{(1R or 1S)-1-[2-({6-[6-(difluoromethyl)pyrimidin-4-yl]-1H-benzimidazol-2-yl}amino)pyridin-4-yl]ethyl}piperazine-1-carboxylate]
IC50: 11.1 nM

O=C(C1CC1)N1CCN(Cc2ccnc(Nc3nc4ccc(-c5ccnc(F)c5)cc4[nH]3)c2)CC1 [Example 137.03, cyclopropyl{4-[(2-{[6-(2-fluoropyridin-4-yl)-1H-benzimidazol-2-yl]amino}pyridin-4-yl)methyl]piperazin-1-yl}methanone]
IC50: 20 nM

O=C(CC(F)(F)F)N1CCN(Cc2ccnc(Nc3nc4ccc(-c5ccncc5C(F)(F)F)cc4[nH]3)c2)CC1 [Example 106.01, 3,3,3-trifluoro-1-(4-{[2-({6-[3-(trifluoromethyl)pyridin-4-yl]-1H-benzimidazol-2-yl}amino)pyridin-4-yl]methyl}piperazin-1-yl)propan-1-one]
IC50: 1500 nM

COc1c(NCC2CC2)ncnc1-c1ccc2nc(Nc3cc(CN4CCN(C(=O)OC(C)(C)C)CC4)ccn3)[nH]c2c1 [Example 109.01.01, tert-butyl 4-({2-[(6-{6-[(cyclopropylmethyl)amino]-5-methoxypyrimidin-4-yl}-1H-benzimidazol-2-yl)amino]pyridin-4-yl}methyl)piperazine-1-carboxylate]
IC50: 9.2 nM

CC(c1ccnc(Nc2nc3ccc(-c4cnn(C(C)C5CC5)c4)cc3[nH]2)c1)N1CCN(C(=O)CC(F)(F)F)CC1 (single isomer, unassigned) [Example 74.02, 1-{4-[(1R or 1S)-1-{2-[(6-{1-[(1RS)-1-cyclopropylethyl]-1H-pyrazol-4-yl}-1H-benzimidazol-2-yl)amino]pyridin-4-yl}ethyl]piperazin-1-yl}-3,3,3-trifluoropropan-1-one]
IC50: 19 nM

COc1ccc(-c2ccc3nc(Nc4cc(CN5CCN(C(=O)OC(C)(C)C)CC5)ccn4)[nH]c3c2)cn1 [Example 13.01, tert-butyl 4-[(2-{[6-(6-methoxypyridin-3-yl)-1H-benzimidazol-2-yl]amino}pyridin-4-yl)methyl]piperazine-1-carboxylate]
IC50: 1250 nM
